PMC8506265 (Bioorganic & medicinal chemistry, 2021)

Tests used:
human CB1 [1] = target: T1, human CB1 (Homo sapiens, UniProt P21554); assay: BRET CAMYEL cAMP assay in HEK293 3HA-hCB1 cells; format: cell-based
human CB1 [2] = target: T1, human CB1; format: biochemical; conditions: operational model of allosterism; probe CP55,940
human CB1 [3] = target: T1, human CB1; assay: hCB1 calcium mobilization assay
human CB1 [4] = target: T1, human CB1; assay: [35S]GTPγS binding assay, hCB1 HEK293 membranes; format: biochemical

T1 sequence (P21554 whole entry): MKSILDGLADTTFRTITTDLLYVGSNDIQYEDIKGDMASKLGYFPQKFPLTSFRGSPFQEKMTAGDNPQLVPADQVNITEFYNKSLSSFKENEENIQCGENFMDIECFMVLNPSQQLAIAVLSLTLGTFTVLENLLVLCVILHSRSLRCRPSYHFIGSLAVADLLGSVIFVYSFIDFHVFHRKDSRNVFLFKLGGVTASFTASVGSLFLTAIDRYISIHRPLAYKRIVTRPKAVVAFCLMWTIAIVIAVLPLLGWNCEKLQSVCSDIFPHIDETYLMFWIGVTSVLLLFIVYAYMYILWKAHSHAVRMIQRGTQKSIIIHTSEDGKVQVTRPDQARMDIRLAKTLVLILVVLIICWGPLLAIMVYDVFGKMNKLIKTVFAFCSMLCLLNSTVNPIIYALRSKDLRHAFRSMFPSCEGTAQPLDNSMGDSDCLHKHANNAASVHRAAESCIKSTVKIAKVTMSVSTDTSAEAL

O=C(NCCc1ccccc1)Nc1ccc(Cl)cc1 [Compound 8, 3‐(4‐Chlorophenyl)‐1‐(2‐phenylethyl)urea]
potency in the cAMP assay (human CB1 [1]): low micromolar range

O=C(NCCc1ccc(N2CCCCC2)cc1)Nc1ccc(Cl)cc1 [Compound 9, 1-(4-Chlorophenyl)-3-{2-[4-(piperidin-1-yl)phenyl]ethyl}-urea]
alpha (binding cooperativity) (human CB1 [2]): 5.1 | beta (modification of probe efficacy) (human CB1 [2]): 0.09 | logalpha (binding cooperativity) (human CB1 [2]): 0.7 ± 0.1 | logbeta (modification of probe efficacy) (human CB1 [2]): −1.1 ± 0.1

CN(C)c1ccc(CCNC(=O)Nc2ccc(Cl)cc2)cc1 [Compound 12, 3‐(4‐Chlorophenyl)‐1‐{2‐[4‐(dimethylamino)phenyl]ethyl}-urea]
potency in the cAMP assay (human CB1 [1]): low micromolar range

O=C(NCc1ccccc1)Nc1ccc(Cl)cc1 [Compound 13, 3‐(4‐Chlorophenyl)‐1‐(3‐phenylmethyl)urea]
IC50 (human CB1 [3]): > 10 µM

CC(C)(CNC(=O)Nc1ccc(Cl)cc1)c1ccccc1 [Compound 15, 1-(4-Chlorophenyl)-3-(2-methyl-2-phenylpropyl)urea]
IC50 (human CB1 [3]): > 10 µM

CC(C)(Cc1ccccc1)NC(=O)Nc1ccc(Cl)cc1 [Compound 16, 1-(4-Chlorophenyl)-3-(2-methyl-1-phenylpropan-2-yl)urea]
IC50 (human CB1 [3]): > 10 µM

O=C(Nc1ccc(Cl)cc1)NC1(Cc2ccccc2)CC1 [Compound 19, 1-(1-Benzylcyclopropyl)-3-(4-chlorophenyl)urea]
IC50 (human CB1 [3]): > 10 µM

O=C(NCCc1ccsc1)Nc1ccc(Cl)cc1 [Compound 24, 1-(4-Chlorophenyl)-3-[2-(thiophen-3-yl)ethyl]urea]
IC50 (human CB1 [4]): 7.94 µM | IC50 (human CB1 [3]): 1.58 µM

O=C(NCCc1cccs1)Nc1ccc(Cl)cc1 [Compound 25, 1-(4-Chlorophenyl)-3-[2-(thiophen-2-yl)ethyl]urea]
IC50 (human CB1 [4]): 7.94 µM | IC50 (human CB1 [3]): 0.794 µM

Cc1ccc(CCNC(=O)Nc2ccc(Cl)cc2)o1 [Compound 26, 1‐(4‐Chlorophenyl)‐3‐[2‐(5‐methylfuran‐2‐yl)ethyl]urea]
IC50 (human CB1 [4]): 12.6 µM | IC50 (human CB1 [1]): 3.98 µM | potency in the cAMP assay (human CB1 [1]): low micromolar range | IC50 (human CB1 [3]): 0.251 µM
